Here are results for 20 compounds from patent US20130344026A1, “Dimeric Smac Mimetics” (priority 2009, published 2013).

For this assay, the system named is PANC-1 cells. The experiment in a line: cell viability assay in PANC-1 cells (compound alone, + 100 ng/ml TNFa, + 300 ng/ml TRAIL). The class given is cell-based.
Setting [1] is: Homo sapiens, PANC-1, compound alone, Tables 6-10, read-out: IC50 (μM) in cell viability assay in PANC-1 cells: Compound alone.
Where [2] appears, read: with 100 ng/ml TNFa, Tables 6-10, read-out: IC50 (μM) in cell viability assay in PANC-1 cells: Compound + 100 ng/ml TNFa.
[3] abbreviates: with 300 ng/ml TRAIL, Tables 6-10, read-out: IC50 (μM) in cell viability assay in PANC-1 cells: Compound + 300 ng/ml TRAIL.
Where [4] appears, read: compound alone, Tables 6-10, read-out: IC50 (μM) in cell viability assay in PANC-1 cells: Compound alone.
Where [5] appears, read: Homo sapiens, PANC-1, compound alone, Tables 15-18, read-out: IC50 (uM) in cell viability assay in PANC-1 cells: Cmpnd alone.
Where [6] appears, read: with 100 ng/ml TNFa, Tables 15-18, read-out: IC50 (uM) in cell viability assay in PANC-1 cells: Cmpnd + 100 ng/ml TNFa.
Setting [7] is: with 300 ng/ml TRAIL, Tables 15-18, read-out: IC50 (uM) in cell viability assay in PANC-1 cells: Cmpnd + 300 ng/ml TRAIL.

Molecules are shown by their SMILES. Read-outs that look alike come from different tables or passages of the source.

`CN[C@@H](C)C(=O)N[C@@H](CC#CC#CC[C@H](NC(=O)[C@H](C)NC)C(=O)N1Cc2ccccc2C[C@H]1C(=O)N[C@H](C)c1ccccc1)C(=O)N1Cc2ccccc2C[C@H]1C(=O)N[C@H](C)c1ccccc1` [Compound 95]: the IC50 is, setting by setting: under setting [1], over 1 µM; under setting [2], over 1 µM; under setting [3], over 1 µM.

In the case of `CN[C@@H](C)C(=O)Nc1nc(CC(=O)NCC[C@H](NC(=O)[C@@H](NC(=O)[C@H](C)NC)C(C)(C)C)C(=O)N[C@@H]2CCCc3ccccc32)cs1` [Compound 190], the IC50 was over 1 µM under setting [1], over 1 µM under setting [2] and over 1 µM under setting [3].

Regarding `CN[C@@H](C)C(=O)N[C@H](C(=O)N1C[C@@H](NC(=O)c2cccc(C(=O)N[C@H]3C[C@@H](C(=O)N[C@H](C)C4OCCCO4)N(C(=O)[C@@H](NC(=O)[C@H](C)NC)C(C)(C)C)C3)c2)C[C@H]1C(=O)N[C@H](C)C1OCCCO1)C(C)(C)C` [Compound 53], the IC50 was over 1 µM under setting [1], 0.466 µM under setting [2] and 0.227 µM under setting [3].

In the case of `CN[C@@H](C)C(=O)N[C@H](C(=O)N1C[C@@H](OC(=O)c2cccc(C(=O)O[C@H]3C[C@@H](C(=O)N[C@H]4CCCc5ccccc54)N(C(=O)[C@@H](NC(=O)[C@H](C)NC)C(C)(C)C)C3)c2)C[C@H]1C(=O)N[C@H]1CCCc2ccccc21)C(C)(C)C` [Compound 206], the IC50 under setting [1] is over 1 µM.

`CN[C@@H](C)C(=O)N[C@H](C(=O)N1C[C@@H](NC(=O)c2cccc(C(=O)N[C@H]3C[C@@H](C(=O)NC4CCCc5cccc(F)c54)N(C(=O)[C@@H](NC(=O)[C@H](C)NC)C(C)(C)C)C3)c2)C[C@H]1C(=O)NC1CCCc2cccc(F)c21)C(C)(C)C` (single isomer, unassigned) [Compound 71]: the IC50 under setting [4] is over 1 µM, the IC50 under setting [2] amounted to 0.005 µM and the IC50 under setting [3] came out at 0.0091 µM.

On to `CN[C@@H](C)C(=O)N[C@H](C(=O)N1C[C@@H](NC(=O)c2cccc(C(=O)N[C@H]3C[C@@H](C(=O)N[C@H](C)c4ccccn4)N(C(=O)[C@@H](NC(=O)[C@H](C)NC)C(C)(C)C)C3)c2)C[C@H]1C(=O)N[C@H](C)c1ccccn1)C(C)(C)C` [Compound 26], for which the IC50 runs as follows: under setting [4], over 1 µM; under setting [2], over 1 µM; under setting [3], over 1 µM.

Take `CN[C@@H](C)C(=O)N[C@H](C(=O)N1CCCC1C(=O)N[C@H](COCC#CC#CCOC[C@@H](NC(=O)[C@H](C)NC(=O)[C@H](NC(=O)[C@@H](C)NC)C1CCCCC1)C(C)C)C1CCCCC1)C(C)(C)C` (stereo partly shown) [Compound H-7]: the IC50 reads like this: under setting [5], over 1 µM; under setting [6], 0.0007 µM; under setting [7], 0.0007 µM.

For the compound `CN[C@@H](C)C(=O)N[C@H](C(=O)N1C[C@@H](NC(=O)CC[C@@H](NC(=O)[C@H](NC(=O)[C@@H](C)NC)C(C)(C)C)C(=O)N[C@H]2CCCc3ccccc32)C[C@H]1C(=O)N[C@H](C)c1ccccc1)C(C)C` [Compound 167], the IC50 was over 1 µM under setting [1], 0.06 µM under setting [2] and 0.1 µM under setting [3].

For `CN[C@@H](C)C(=O)N[C@@H](CCCCCC[C@H](NC(=O)[C@H](C)NC)C(=O)N1CCC[C@H]1CNC(=O)c1ccccc1)C(=O)N1CCC[C@H]1CNC(=O)c1ccccc1` [Compound 16], the IC50 under setting [1] was over 1 µM, the IC50 under setting [2] was over 1 µM and the IC50 under setting [3] was over 1 µM.

For the compound `CNC(C)C(=O)Nc1nc(-c2ccccc2)c(C(=O)NC[C@@H](NC(=O)[C@@H]2CCCN2C(=O)[C@@H](NC(=O)[C@H](C)NC)C(C)(C)C)c2ccccc2)s1` (stereo partly shown) [Compound 192], the IC50 is over 1 µM under setting [1], 0.659 µM under setting [2] and over 1 µM under setting [3].

In the case of `CN[C@@H](C)C(=O)N[C@@H](CCNCc1ccc(CNCC[C@H](NC(=O)[C@H](C)NC)C(=O)N2CCC[C@H]2C(=O)N[C@@H]2CCCc3ccccc32)cc1)C(=O)N1CCC[C@H]1C(=O)N[C@@H]1CCCc2ccccc21` [Compound P2-43], the IC50 runs as follows: under setting [5], over 1 µM; under setting [6], 0.012 µM; under setting [7], 0.016 µM.

Regarding `CN[C@@H](C)C(=O)N[C@@H](CCCCCC[C@H](NC(=O)[C@H](C)NC)C(=O)N1C[C@@H](F)C[C@H]1C(=O)N[C@@H]1CCCc2ccccc21)C(=O)N1C[C@H](F)C[C@H]1C(=O)N[C@@H]1CCCc2ccccc21` [Compound 106], the IC50 reads like this: under setting [1], over 1 µM; under setting [2], 0.006 µM; under setting [3], 0.006 µM.

In the case of `CN[C@@H](C)C(=O)N[C@@H](CCC(=O)Nc1cccc(C#Cc2cccc(NC(=O)CC[C@H](NC(=O)[C@H](C)NC)C(=O)N3CCC[C@H]3C(=O)N[C@@H]3CCCc4ccccc43)c2)c1)C(=O)N1CCC[C@H]1C(=O)N[C@@H]1CCCc2ccccc21` [Compound P2-49], the IC50 by setting is: under setting [5], over 1 µM; under setting [6], 0.033 µM; under setting [7], 0.033 µM.

`CCC1(NC(=O)[C@@H]2C[C@H](NC(=O)c3cccc(C(=O)N[C@H]4C[C@@H](C(=O)NC5(CC)CCCc6ccccc65)N(C(=O)[C@@H](NC(=O)[C@H](C)NC)C(C)(C)C)C4)c3)CN2C(=O)[C@@H](NC(=O)[C@H](C)NC)C(C)(C)C)CCCc2ccccc21` (stereo partly shown) [Compound 50]: the IC50 was over 1 µM under setting [1], 0.236 µM under setting [2] and 0.122 µM under setting [3].

Turning to `CN[C@@H](C)C(=O)N[C@H](C(=O)N[C@@H](CCNC(=O)c1ccc(C#Cc2ccc(C(=O)N[C@H]3C[C@@H](C(=O)N[C@@H]4CCCc5ccccc54)N(C(=O)[C@@H](NC(=O)[C@H](C)NC)C(C)(C)C)C3)cc2)cc1)C(=O)NC(C)C(C)C)C(C)C` (stereo partly shown) [Compound 194], the IC50 under setting [1] was over 1 µM, the IC50 under setting [2] worked out at 0.057 µM and the IC50 under setting [3] was 0.06 µM.

Consider `CN[C@@H](C)C(=O)N[C@@H](CC(=O)NCCNC(=O)C[C@H](NC(=O)[C@H](C)NC)C(=O)N1CCC[C@H]1C(=O)N[C@@H]1CCCc2ccccc21)C(=O)N1CCC[C@H]1C(=O)N[C@@H]1CCCc2ccccc21` [Compound P2-40], for which the IC50 is over 1 µM under setting [5], 0.19 µM under setting [6] and 0.25 µM under setting [7].

`CN[C@@H](C)C(=O)N[C@@H](CCCCCC[C@H](NC(=O)[C@H](C)NC)C(=O)N1CCC[C@H]1c1ncc(C(=O)Nc2ccccc2)o1)C(=O)N1CCC[C@H]1c1ncc(C(=O)Nc2ccccc2)o1` [Compound 39]: the IC50 under setting [1] is over 1 µM, the IC50 under setting [2] was over 1 µM and the IC50 under setting [3] is over 1 µM.

Consider `CN[C@@H](C)C(=O)N[C@@H](C)C(=O)N[C@@H](CCNC(=O)c1cccc(C(=O)N[C@H]2C[C@@H](C(=O)N[C@@H]3CCCc4ccccc43)N(C(=O)[C@@H](NC(=O)[C@H](C)NC)C(C)(C)C)C2)c1)C(=O)N[C@H](C)c1ccccc1` [Compound 178], for which the IC50 is, setting by setting: under setting [1], over 1 µM; under setting [2], 0.054 µM; under setting [3], 0.089 µM.

Consider `CN[C@@H](C)C(=O)N[C@H](C(=O)N1C[C@@H](NC(=O)c2ccc3cc(C(=O)NCC[C@H](NC(=O)[C@@H](NC(=O)[C@H](CO)NC)C4CCCCC4)C(=O)N[C@H](C)C(C)C)ccc3c2)C[C@H]1C(=O)N[C@@H]1CCCc2ccccc21)C(C)(C)C` [Compound H-10], for which the IC50 reads like this: under setting [5], over 1 µM; under setting [6], 0.001 µM; under setting [7], 0.0009 µM.

For the compound `CN[C@@H](C)C(=O)N[C@H](C(=O)N1CCC[C@H]1CN(CCc1ccccc1)C(=O)CCC#CC#CCCC(=O)N(CCc1ccccc1)C[C@@H]1CCCN1C(=O)[C@@H](NC(=O)[C@H](C)NC)C(C)(C)C)C(C)(C)C` [Compound P4-21], the IC50 was over 1 µM under setting [5], 0.151 µM under setting [6] and 0.175 µM under setting [7].
